We go through 8 molecules from ChEMBL document CHEMBL1201862, “PubChem BioAssay data set” (2004).

Common to all, as to experiment: NCI anticancer screen, dose series, 48 h
Experiment [1] concerns NCI-H522.
For experiment [2], the system named is SN12C.
Experiment [3] concerns SF-268.
Experiment [4] has as its system 786-0.
The test system of experiment [5] is OVCAR-4.
Experiment [6] concerns SR.
Experiment [7] relates to HCT-15.
Experiment [8] concerns UACC-257.
Experiment [9] has as its system HOP-62.
Experiment [10] concerns KM12.
In experiment [11] the test system is CAKI-1.
The subject of experiment [12] is OVCAR-8.
Experiment [13] concerns SNB-19.
Experiment [14] relates to U-251.
For experiment [15], the system named is SF-539.
For experiment [16], the system named is HL-60.
Experiment [17] deals with NCI-H460.
Experiment [18] has as its system EKVX.
Experiment [19] relates to MDA-MB-231.

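Cells were grown in 96-well plates and exposed to each compound for 48 hours at five concentrations; endpoints were interpolated linearly between bracketing concentrations, or set to the highest concentration if not reached. Here, GI50 denotes the concentration required for 50% inhibition of growth.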 Calls of active or inactive are those of the source. Cut-off read from the data, not from the text of the source: active = GI50 up to about 1.1 µM and inactive = higher.

For `CC1=C2C(=CC(C)(C)[C@@H]2O)C(=O)[C@](C)(O)C12CC2` [ILLUDIN M], the GI50 in experiment [1] is 0.0115 µM (active); in experiment [2], 0.0236 µM (active); in experiment [3] it was 0.0162 µM (active); in experiment [4] it was 0.01 µM (active); in experiment [5] it was < 0.0112 µM (active); in experiment [6] it was 0.01 µM (active). The GI50 is 0.0129 µM in experiment [7]; 0.08 µM (active) in experiment [8]; 0.0185 µM (active) in [9]; 0.0284 µM (active) in experiment [10]; 0.0209 µM (active) in [11]; < 0.018 µM (active) in experiment [12]. The GI50 was 0.027 µM (active) in [13]; 0.01 µM (active) in experiment [14]; 0.0184 µM (active) in experiment [15]; 0.0156 µM (active) in [16]; 0.01 µM (active) in experiment [17]; 0.0773 µM (active) in experiment [18].
Turning to `CC(=O)c1cc(S(=O)(=O)c2ccc(O)c(C(C)=O)c2)ccc1O`, the GI50 was > 100 µM (inactive) in [1]; > 100 µM (inactive) in experiment [2]; 55.6 µM (inactive) in [3]; 98.2 µM (inactive) in experiment [4]; > 100 µM (inactive) in experiment [5]; 33.4 µM (inactive) in experiment [6]. Also, the GI50 was 95.9 µM in experiment [7]; > 100 µM (inactive) in experiment [8]; > 100 µM (inactive) in experiment [9]; 44.9 µM (inactive) in [10]; > 100 µM (inactive) in [11]; 70 µM (inactive) in [12]. For the same molecule, the GI50 in experiment [13] is 68.5 µM (inactive); in experiment [19], > 100 µM (inactive); in experiment [14], 31.6 µM (inactive); in [15], 30.2 µM (inactive); in experiment [17], 84.9 µM (inactive); in experiment [18], > 100 µM (inactive).
In the case of `Cc1ccc(NC(=O)CC2C(=O)Nc3ccccc3[S+]2[O-])c(C)c1` (stereo not drawn), the GI50 in experiment [1] is 6.89 µM (inactive); in experiment [2], 30.5 µM (inactive); in [3], 24.5 µM (inactive); in experiment [4], 15.1 µM (inactive); in experiment [5], 17.3 µM (inactive); in experiment [6], 2.9 µM (inactive). The GI50 in experiment [7] was 4.94 µM; in [8] it was 50.8 µM (inactive); in [9] it was 16.4 µM (inactive); in [10], 4.6 µM (inactive); in experiment [11] it was 11 µM (inactive); in experiment [12] it was 16.9 µM (inactive). The GI50 was 11.7 µM (inactive) in experiment [13]; 10.8 µM (inactive) in experiment [14]; 12.9 µM (inactive) in [15]; 2.86 µM (inactive) in experiment [16]; 13 µM (inactive) in [17]; > 61.7 µM (inactive) in experiment [18].
Turning to `CN1N=C(c2ccccc2)c2cc(Cl)ccc2N=C1N/N=C/c1ccc(N(C)C)cc1`, the GI50 in experiment [1] is > 100 µM (inactive); in experiment [2], > 100 µM (inactive); in experiment [3], > 100 µM (inactive); in experiment [4], > 100 µM (inactive); in experiment [5], > 100 µM (inactive); in [6], 49.2 µM (inactive). For the same molecule, the GI50 is 87.7 µM in [7]; > 100 µM (inactive) in experiment [8]; > 100 µM (inactive) in [9]; > 100 µM (inactive) in experiment [10]; > 100 µM (inactive) in experiment [11]; > 100 µM (inactive) in [12]. Moreover, the GI50 in experiment [13] is > 100 µM (inactive); in experiment [19], 97.7 µM (inactive); in experiment [14] it was > 100 µM (inactive); in experiment [15], > 100 µM (inactive); in [16], 39.6 µM (inactive); in experiment [17] it was > 100 µM (inactive). For the same molecule, the GI50 in [18] was > 100 µM (inactive).
Consider `COc1cc(C2c3cc4c(cc3[C@@H](OCCN)[C@H]3COC(=O)C23)OCO4)cc(OC)c1O` (stereo partly drawn), for which the GI50 was 0.155 µM (active) in experiment [1]; 0.107 µM (active) in [2]; 0.159 µM (active) in experiment [3]; 0.082 µM (active) in experiment [4]; 2.05 µM (inactive) in experiment [5]; < 0.0191 µM (active) in experiment [6]. The GI50 in experiment [7] was 2.87 µM; in experiment [8], 1.24 µM (inactive); in [9], 0.069 µM (active); in [10], 0.491 µM (active); in experiment [11] it was 0.135 µM (active); in experiment [12], 0.55 µM (active). Further, the GI50 in experiment [13] is 0.104 µM (active); in [14], 0.0405 µM (active); in [15] it was 0.105 µM (active); in [16], < 0.01 µM (active); in experiment [17], < 0.01 µM (active); in experiment [18], 0.413 µM (active).
In the case of `CCOC(OC1=C(C#N)CCCC1)C(C)[Se]c1ccccc1` (stereo not drawn), the GI50 in experiment [1] was 16 µM (inactive); in [2] it was 25.2 µM (inactive); in [3] it was 18.5 µM (inactive); in experiment [4], 15.5 µM (inactive); in [5] it was 21.7 µM (inactive); in [6] it was 20.7 µM (inactive). Also, the GI50 in experiment [7] was 36.8 µM; in [8], 74.6 µM (inactive); in experiment [9], 78.3 µM (inactive); in [10] it was > 100 µM (inactive); in experiment [11] it was 65.2 µM (inactive); in experiment [12], 24.3 µM (inactive). Moreover, the GI50 in experiment [13] was 54.5 µM (inactive); in experiment [14] it was 13.4 µM (inactive); in experiment [15], 18.1 µM (inactive); in experiment [16], 17.3 µM (inactive); in experiment [17], 54.1 µM (inactive); in experiment [18] it was 28.7 µM (inactive).
With `COc1ccc(-c2cc(=O)c3c(O)c(O)c(OC)cc3o2)cc1O`, the GI50 was 53.5 µM (inactive) in experiment [1]; > 100 µM (inactive) in experiment [2]; 84.5 µM (inactive) in experiment [3]; > 100 µM (inactive) in [4]; > 100 µM (inactive) in experiment [5]; 44.5 µM (inactive) in experiment [6]. Moreover, the GI50 in [7] was more than 100 µM; in experiment [8], > 100 µM (inactive); in experiment [9] it was > 100 µM (inactive); in [10], > 100 µM (inactive); in [11], > 100 µM (inactive); in experiment [12], > 100 µM (inactive). The GI50 in experiment [13] is > 100 µM (inactive); in experiment [14], > 100 µM (inactive); in experiment [15], > 100 µM (inactive); in experiment [16], > 100 µM (inactive); in experiment [17], 57.9 µM (inactive); in experiment [18], > 100 µM (inactive).
Regarding `Nc1nc(-[n+]2ccc(-c3ccncc3)cc2)nc(Cl)c1Cl`, the GI50 in [2] was 20.3 µM (inactive); in experiment [3], 18.4 µM (inactive); in [4] it was 13.5 µM (inactive); in experiment [5], > 100 µM (inactive); in experiment [6], 20 µM (inactive); in experiment [7] it was 49.4 µM. The GI50 in [8] is 20.4 µM (inactive); in experiment [9], 43 µM (inactive); in experiment [10], 43.6 µM (inactive); in experiment [13], 27 µM (inactive); in experiment [19] it was 35.4 µM (inactive); in experiment [14], 35.4 µM (inactive). The GI50 in [15] is 26.8 µM (inactive); in experiment [16], 18.6 µM (inactive); in [17], > 100 µM (inactive); in [18], 26.6 µM (inactive).
